{"source": "ChEMBL document CHEMBL3046163", "about": "“Cross-resistance relationships between neonicotinoids and pymetrozine in Bemisia tabaci (Hemiptera: Aleyrodidae)” (2010)", "assay_type_in_all_cases": "functional", "key": {"[1]": {"system": "Bemisia tabaci", "assay": "Insecticidal activity against Bemisia tabaci biotype-Q Q1 (sweet potato whitefly) after 48 hr by leaf-dip bioassay", "settings": "biotype-Q Q1, 48 h"}, "[2]": {"system": "Bemisia tabaci", "assay": "Insecticidal activity against Bemisia tabaci biotype-B B1 (sweet potato whitefly) after 48 hr by leaf-dip bioassay", "settings": "biotype-B B1, 48 h"}, "[3]": {"system": "Bemisia tabaci", "assay": "Resistance ratio of LC50 for Bemisia tabaci biotype-B B4 (sweet potato whitefly) to LC50 for Bemisia tabaci LABS"}, "[4]": {"system": "Bemisia tabaci", "assay": "Resistance ratio of LC50 for Bemisia tabaci biotype-B B3 (sweet potato whitefly) to LC50 for Bemisia tabaci LABS"}, "[5]": {"system": "Bemisia tabaci", "assay": "Insecticidal activity against Bemisia tabaci biotype-B B3 (sweet potato whitefly) after 48 hr by leaf-dip bioassay", "settings": "biotype-B B3, 48 h"}, "[6]": {"system": "Bemisia tabaci", "assay": "Insecticidal activity against Bemisia tabaci biotype-B B4 (sweet potato whitefly) after 48 hr by leaf-dip bioassay", "settings": "biotype-B B4, 48 h"}, "[7]": {"system": "Bemisia tabaci", "assay": "Insecticidal activity against Bemisia tabaci biotype-B B2 (sweet potato whitefly) after 48 hr by leaf-dip bioassay", "settings": "biotype-B B2, 48 h"}, "[8]": {"system": "Bemisia tabaci", "assay": "Insecticidal activity against Bemisia tabaci biotype-Q Q2 (sweet potato whitefly) after 48 hr by leaf-dip bioassay", "settings": "biotype-Q Q2, 48 h"}, "[9]": {"system": "Bemisia tabaci", "assay": "Insecticidal activity against Bemisia tabaci LABS (sweet potato whitefly) after 48 hr by leaf-dip bioassay"}, "[10]": {"system": "Bemisia tabaci", "assay": "Resistance ratio of LC50 for Bemisia tabaci biotype-Q Q3 (sweet potato whitefly) to LC50 for Bemisia tabaci LABS"}, "[11]": {"system": "Bemisia tabaci", "assay": "Resistance ratio of LC50 for Bemisia tabaci biotype-Q Q1 (sweet potato whitefly) to LC50 for Bemisia tabaci LABS"}, "[12]": {"system": "Bemisia tabaci", "assay": "Resistance ratio of LC50 for Bemisia tabaci biotype-B B1 (sweet potato whitefly) to LC50 for Bemisia tabaci LABS"}, "[13]": {"system": "Bemisia tabaci", "assay": "Insecticidal activity against Bemisia tabaci biotype-Q Q3 (sweet potato whitefly) after 48 hr by leaf-dip bioassay", "settings": "biotype-Q Q3, 48 h"}, "[14]": {"system": "Bemisia tabaci", "assay": "Resistance ratio of LC50 for Bemisia tabaci biotype-Q Q2 (sweet potato whitefly) to LC50 for Bemisia tabaci LABS"}, "[15]": {"system": "Bemisia tabaci", "assay": "Resistance ratio of LC50 for Bemisia tabaci biotype-B B2 (sweet potato whitefly) to LC50 for Bemisia tabaci LABS"}, "[16]": {"system": "Bemisia tabaci", "assay": "Insecticidal activity against pymetrozine-selected Bemisia tabaci B2 (sweet potato whitefly) after 48 hr by leaf-dip bioassay", "settings": "B2, 48 h"}, "[17]": {"system": "Bemisia tabaci", "assay": "Selectivity ratio of LC50 for pymetrozine-selected Bemisia tabaci B2 (sweet potato whitefly) to LC50 for Bemisia tabaci B2"}, "[18]": {"system": "Bemisia tabaci", "assay": "Insecticidal activity against Bemisia tabaci biotype-B B3 (sweet potato whitefly) after 96 hr by leaf-dip bioassay", "settings": "biotype-B B3, 96 h"}, "[19]": {"system": "Bemisia tabaci", "assay": "Insecticidal activity against Bemisia tabaci biotype-Q Q1 (sweet potato whitefly) after 96 hr by leaf-dip bioassay", "settings": "biotype-Q Q1, 96 h"}, "[20]": {"system": "Bemisia tabaci", "assay": "Insecticidal activity against Bemisia tabaci biotype-Q Q2 (sweet potato whitefly) after 96 hr by leaf-dip bioassay", "settings": "biotype-Q Q2, 96 h"}, "[21]": {"system": "Bemisia tabaci", "assay": "Insecticidal activity against Bemisia tabaci biotype-B B1 (sweet potato whitefly) after 96 hr by leaf-dip bioassay", "settings": "biotype-B B1, 96 h"}, "[22]": {"system": "Bemisia tabaci", "assay": "Insecticidal activity against thiamethoxam-selected Bemisia tabaci B1B3 (sweet potato whitefly) after 96 hr by leaf-dip bioassay", "settings": "B1B3, 96 h"}, "[23]": {"system": "Bemisia tabaci", "assay": "Insecticidal activity against Bemisia tabaci biotype-B B2 (sweet potato whitefly) after 96 hr by leaf-dip bioassay", "settings": "biotype-B B2, 96 h"}, "[24]": {"system": "Bemisia tabaci", "assay": "Insecticidal activity against pymetrozine-selected Bemisia tabaci B2 (sweet potato whitefly) after 96 hr by leaf-dip bioassay", "settings": "B2, 96 h"}, "[25]": {"system": "Bemisia tabaci", "assay": "Insecticidal activity against Bemisia tabaci biotype-Q Q3 (sweet potato whitefly) after 96 hr by leaf-dip bioassay", "settings": "biotype-Q Q3, 96 h"}, "[26]": {"system": "Bemisia tabaci", "assay": "Insecticidal activity against Bemisia tabaci B1B3 (sweet potato whitefly) after 96 hr by leaf-dip bioassay", "settings": "B1B3, 96 h"}, "[27]": {"system": "Bemisia tabaci", "assay": "Insecticidal activity against Bemisia tabaci biotype-B B4 (sweet potato whitefly) after 96 hr by leaf-dip bioassay", "settings": "biotype-B B4, 96 h"}, "[28]": {"system": "Bemisia tabaci", "assay": "Selectivity ratio of LC50 for thiamethoxam-selected Bemisia tabaci B1B3 (sweet potato whitefly) to LC50 for Bemisia tabaci B1B3"}, "[29]": {"system": "Bemisia tabaci", "assay": "Insecticidal activity against Bemisia tabaci LABS (sweet potato whitefly) after 96 hr by leaf-dip bioassay"}, "[30]": {"system": "Bemisia tabaci", "assay": "Insecticidal activity against pymetrozine-selected Bemisia tabaci B1B3 (sweet potato whitefly) after 96 hr by leaf-dip bioassay", "settings": "B1B3, 96 h"}, "[31]": {"system": "Bemisia tabaci", "assay": "Selectivity ratio of LC50 for pymetrozine-selected Bemisia tabaci B1B3 (sweet potato whitefly) to LC50 for Bemisia tabaci B1B3"}, "[32]": {"system": "Bemisia tabaci", "assay": "Insecticidal activity against pymetrozine-selected Bemisia tabaci B1B3 (sweet potato whitefly) after 48 hr by leaf-dip bioassay", "settings": "B1B3, 48 h"}, "[33]": {"system": "Bemisia tabaci", "assay": "Insecticidal activity against Bemisia tabaci B1B3 (sweet potato whitefly) after 48 hr by leaf-dip bioassay", "settings": "B1B3, 48 h"}, "[34]": {"system": "Bemisia tabaci", "assay": "Insecticidal activity against thiamethoxam-selected Bemisia tabaci B1B3 (sweet potato whitefly) after 48 hr by leaf-dip bioassay", "settings": "B1B3, 48 h"}}}
{"smiles": "C/C(=N\\C#N)N(C)Cc1ccc(Cl)nc1", "note": "[ACETAMIPRID]", "values": [{"measurement": "LC50", "setting": "[1]", "result": 3.5, "unit": "mg/L"}, {"measurement": "LC50", "setting": "[2]", "result": 7.6, "unit": "mg/L"}, {"measurement": "RatioLC50", "setting": "[3]", "result": 15}, {"measurement": "RatioLC50", "setting": "[4]", "result": 30}, {"measurement": "LC50", "setting": "[5]", "result": 110, "unit": "mg/L"}, {"measurement": "LC50", "setting": "[6]", "result": 54, "unit": "mg/L"}, {"measurement": "LC50", "setting": "[7]", "result": 4.3, "unit": "mg/L"}, {"measurement": "LC50", "setting": "[8]", "result": 74, "unit": "mg/L"}, {"measurement": "LC50", "setting": "[9]", "result": 3.7, "unit": "mg/L"}, {"measurement": "RatioLC50", "setting": "[10]", "result": 57}, {"measurement": "RatioLC50", "setting": "[11]", "result": 0.95}, {"measurement": "RatioLC50", "setting": "[12]", "result": 2.1}, {"measurement": "LC50", "setting": "[13]", "result": 210, "unit": "mg/L"}, {"measurement": "RatioLC50", "setting": "[14]", "result": 20}, {"measurement": "RatioLC50", "setting": "[15]", "result": 1.2}]}
{"smiles": "O=[N+]([O-])/N=C1\\NCCN1Cc1ccc(Cl)nc1", "note": "[IMIDACLOPRID]", "values": [{"measurement": "LC50", "setting": "[1]", "result": 8.5, "unit": "mg/L"}, {"measurement": "LC50", "setting": "[2]", "result": 5.8, "unit": "mg/L"}, {"measurement": "RatioLC50", "setting": "[3]", "result": 230}, {"measurement": "RatioLC50", "setting": "[4]", "result": 230}, {"measurement": "LC50", "setting": "[5]", "result": 1100, "unit": "mg/L"}, {"measurement": "LC50", "setting": "[16]", "result": 23, "unit": "mg/L"}, {"measurement": "LC50", "setting": "[6]", "result": 1100, "unit": "mg/L"}, {"measurement": "RatioLC50", "setting": "[17]", "result": 0.92}, {"measurement": "LC50", "setting": "[7]", "result": 17, "unit": "mg/L"}, {"measurement": "LC50", "setting": "[8]", "result": 2000, "unit": "mg/L"}, {"measurement": "LC50", "setting": "[9]", "result": 4.8, "unit": "mg/L"}, {"measurement": "RatioLC50", "setting": "[10]", "result": 850}, {"measurement": "RatioLC50", "setting": "[11]", "result": 1.8}, {"measurement": "RatioLC50", "setting": "[12]", "result": 1.2}, {"measurement": "LC50", "setting": "[13]", "result": 4100, "unit": "mg/L"}, {"measurement": "RatioLC50", "setting": "[14]", "result": 420}, {"measurement": "RatioLC50", "setting": "[15]", "result": 3.5}]}
{"smiles": "CC1=NNC(=O)N(/N=C/c2cccnc2)C1", "note": "[PYMETROZINE]", "values": [{"measurement": "LC50", "setting": "[18]", "result": 1200, "unit": "mg/L"}, {"measurement": "LC50", "setting": "[19]", "result": 14, "unit": "mg/L"}, {"measurement": "RatioLC50", "setting": "[3]", "result": 520}, {"measurement": "RatioLC50", "setting": "[4]", "result": 1100}, {"measurement": "RatioLC50", "setting": "[17]", "result": 54}, {"measurement": "LC50", "setting": "[20]", "result": 930, "unit": "mg/L"}, {"measurement": "RatioLC50", "setting": "[10]", "result": 1900}, {"measurement": "LC50", "setting": "[21]", "result": 3.9, "unit": "mg/L"}, {"measurement": "RatioLC50", "setting": "[11]", "result": 5.8}, {"measurement": "LC50", "setting": "[22]", "result": 1100, "unit": "mg/L"}, {"measurement": "LC50", "setting": "[23]", "result": 220, "unit": "mg/L"}, {"measurement": "LC50", "setting": "[24]", "result": 15000, "unit": "mg/L"}, {"measurement": "RatioLC50", "setting": "[12]", "result": 1.6}, {"measurement": "LC50", "setting": "[25]", "result": 4600, "unit": "mg/L"}, {"measurement": "RatioLC50", "setting": "[14]", "result": 390}, {"measurement": "LC50", "setting": "[26]", "result": 140, "unit": "mg/L"}, {"measurement": "LC50", "setting": "[27]", "result": 1200, "unit": "mg/L"}, {"measurement": "RatioLC50", "setting": "[28]", "result": 7.9}, {"measurement": "LC50", "setting": "[29]", "result": 2.4, "unit": "mg/L"}, {"measurement": "RatioLC50", "setting": "[15]", "result": 92}, {"measurement": "LC50", "setting": "[30]", "result": 3200, "unit": "mg/L"}, {"measurement": "RatioLC50", "setting": "[31]", "result": 23}]}
{"smiles": "CN1COCN(Cc2cnc(Cl)s2)/C1=N\\[N+](=O)[O-]", "note": "[THIAMETHOXAM]", "values": [{"measurement": "LC50", "setting": "[1]", "result": 15, "unit": "mg/L"}, {"measurement": "LC50", "setting": "[2]", "result": 4.5, "unit": "mg/L"}, {"measurement": "RatioLC50", "setting": "[3]", "result": 73}, {"measurement": "RatioLC50", "setting": "[4]", "result": 150}, {"measurement": "LC50", "setting": "[5]", "result": 100, "unit": "mg/L"}, {"measurement": "LC50", "setting": "[16]", "result": 8.6, "unit": "mg/L"}, {"measurement": "LC50", "setting": "[6]", "result": 300, "unit": "mg/L"}, {"measurement": "RatioLC50", "setting": "[17]", "result": 0.29}, {"measurement": "LC50", "setting": "[7]", "result": 12, "unit": "mg/L"}, {"measurement": "LC50", "setting": "[8]", "result": 980, "unit": "mg/L"}, {"measurement": "LC50", "setting": "[32]", "result": 290, "unit": "mg/L"}, {"measurement": "LC50", "setting": "[9]", "result": 4.1, "unit": "mg/L"}, {"measurement": "RatioLC50", "setting": "[10]", "result": 490}, {"measurement": "LC50", "setting": "[33]", "result": 64, "unit": "mg/L"}, {"measurement": "RatioLC50", "setting": "[11]", "result": 3.7}, {"measurement": "RatioLC50", "setting": "[12]", "result": 6.3}, {"measurement": "LC50", "setting": "[13]", "result": 2000, "unit": "mg/L"}, {"measurement": "RatioLC50", "setting": "[14]", "result": 240}, {"measurement": "RatioLC50", "setting": "[28]", "result": 7}, {"measurement": "RatioLC50", "setting": "[15]", "result": 2.9}, {"measurement": "LC50", "setting": "[34]", "result": 450, "unit": "mg/L"}, {"measurement": "RatioLC50", "setting": "[31]", "result": 4.5}]}
